Entries after “also recorded” stand apart in the source; their conditions may differ.
Assays:
[1] = tested on: cancer cells; settings: ref [20]; cited from earlier work
Description: NT4 is already known to have major effects on cancer cells, such as inhibition of migration and invasion of ECM induced by FGF ([20]).

[2] = tested on: HT-29, PANC-1, MCF-7, and MDA-MB-231 cells; experiment: NT4 cell binding versus sulfatase expression in cell panel; type: cell-based, human; settings: SULF-1 and SULF-2 expression (RT-PCR; SULF-1 also Western blot) versus flow cytometry binding
Method: PANC-1 human pancreas adenocarcinoma, HT-29 human colon adenocarcinoma, and MCF-7 and MDA-MB-231 human breast adenocarcinoma cells were grown in the recommended American Type Culture Collection (ATCC) media, supplemented with 10% fetal calf serum, 200 μg/ml glutamine, 100 μg/ml streptomycin, 60 μg/ml penicillin, and maintained at 37°C, 5% CO2. Cell lines were purchased from ATCC, and cell profiling was analyzed to authenticate human cell lines (BMR Genomics). All experiments were performed using 2 × 10^5 cells in 96-well U-bottom plates. All dilutions were performed in phosphate-buffered saline (PBS), containing 5 mM EDTA and 1% bovine serum albumin (BSA). […] P values were calculated using a two-tailed Student t-test and GraphPad Prism 5.0 software. […] RNA was quantified by spectrophotometry at 260 and 280 nm and verified by agarose gel electrophoresis. The same quantity of RNA for every cell line was loaded on the gel. […] Signals were detected using Image LAS4010 (GE Healthcare). […] P values were calculated using a one-tailed Student t-test and GraphPad Prism 5.0 software. […] Signals were detected using Image LAS4010 (GE Healthcare). […] P values were calculated using a parametric, unpaired Student t-test, and GraphPad Prism 5.0 software.

[3] = tested on: syndecan-4; experiment: SPR, NT4 binding to recombinant syndecan-4; parameters: species or system human; settings: rHSPG over immobilized NT4
Method: (§1) Experiments were performed on a Biacore T100 instrument (GE Healthcare). All materials were purchased from GE Healthcare unless otherwise specified. Full-length recombinant human HSPG were purchased from R&D Systems. Syndecan-3, syndecan-4, and glypican-3 were obtained from the mouse myeloma cell line (NS0), and glypican-4 was obtained from the Chinese Hamster Ovary cell line. The activity of syndecan-4, glypican-3, and glypican-4 was measured by the supplier as the ability of the immobilized protein to bind FGF-basic. The activity of syndecan-3 was measured by the supplier as the ability of the immobilized protein to inhibit adhesion of Saos-2 human osteosarcoma cells to human fibronectin.
(§2) NT4-biotin was captured on a CM5 sensor chip where streptavidin had previously been immobilized by standard amine coupling. Briefly, the sensor chip surface was activated with a mixture of 0.1 M 1-ethyl-3(3-dimethylaminopropyl)-carbodiimide (EDC) and 0.4 M N-hydroxyl succinimide (NHS) for 7 min at a flow rate of 5 μl/min. Streptavidin was injected over the surface for 7 min, and finally, 1 M ethanolamine pH 8.5 was used to block any activated carboxyl groups. […]
(§3) Kinetics were analyzed with the Biacore T100 evaluation 1.1.1 software using the 1:1 Langmuir model to fit the curves.

[4] = tested on: syndecan-3; experiment: SPR, NT4 binding to recombinant syndecan-3; parameters: species or system human; settings: rHSPG 25 μg/mL over immobilized NT4
Method: as §1, §2, §3

binding to syndecan-4 [3]: binds
Substance: (pyELYENKPRRPYIL)4K2K-beta-Ala [NT4]
effect on migration and invasion of ECM induced by FGF [1]: inhibition
correlation of NT4 binding with sulfatase expression [2]: inversely correlated with sulfatase expression; also recorded: inversely correlated with expression of sulfatases
binding to syndecan-3 [4]: does not bind; also recorded: did not bind
